Test results from patent EP3002287B1, “Thiochromeno[2,3-c]quinolin-12-one derivatives and their use as topoisomerase inhibitors” (National Defense Medical Center, priority 2014, dated 2016).

Assays:
60 cell lines = assay: NCI in vitro 60-cell drug screen (SRB assay), whole panel statistics; conditions: mean over the cell panel; 10^-5 molar concentration; 48 hours
MALME-3M = assay: NCI in vitro 60-cell drug screen (SRB assay); format: cell-based; conditions: MALME-3M (Melanoma); 10^-5 molar concentration; 48 hours
MOLT-4 = assay: NCI in vitro 60-cell drug screen (SRB assay); format: cell-based; conditions: MOLT-4 (Leukemia); 10^-5 molar concentration; 48 hours
SK-MEL-2 = assay: NCI in vitro 60-cell drug screen (SRB assay); format: cell-based; conditions: SK-MEL-2 (Melanoma); 10^-5 molar concentration; 48 hours
LOX IMVI = assay: NCI in vitro 60-cell drug screen (SRB assay); format: cell-based; conditions: LOX IMVI (Melanoma); 10^-5 molar concentration; 48 hours
NCI-H460 = assay: NCI in vitro 60-cell drug screen (SRB assay); format: cell-based; conditions: NCI-H460 (Non-small cell lung cancer); 10^-5 molar concentration; 48 hours
MCF7 = assay: NCI in vitro 60-cell drug screen (SRB assay); format: cell-based; conditions: MCF7 (Breast cancer); 10^-5 molar concentration; 48 hours
HS 578T = assay: NCI in vitro 60-cell drug screen (SRB assay); format: cell-based; conditions: HS 578T (Breast cancer); 10^-5 molar concentration; 48 hours
RXF 393 = assay: NCI in vitro 60-cell drug screen (SRB assay); format: cell-based; conditions: RXF 393 (Renal cancer); 10^-5 molar concentration; 48 hours
HCT-15 = assay: NCI in vitro 60-cell drug screen (SRB assay); format: cell-based; conditions: HCT-15 (Colon cancer); 10^-5 molar concentration; 48 hours
OVCAR-8 = assay: NCI in vitro 60-cell drug screen (SRB assay); format: cell-based; conditions: OVCAR-8 (Ovarian cancer); 10^-5 molar concentration; 48 hours
NCI-H522 = assay: NCI in vitro 60-cell drug screen (SRB assay); format: cell-based; conditions: NCI-H522 (Non-small cell lung cancer); 10^-5 molar concentration; 48 hours
786-0 = assay: NCI in vitro 60-cell drug screen (SRB assay); format: cell-based; conditions: 786-0 (Renal cancer); 10^-5 molar concentration; 48 hours
HCT-116 = assay: NCI in vitro 60-cell drug screen (SRB assay); format: cell-based; conditions: HCT-116 (Colon cancer); 10^-5 molar concentration; 48 hours
MDA-MB-486 = assay: NCI in vitro 60-cell drug screen (SRB assay); format: cell-based; conditions: MDA-MB-486 (Breast cancer); 10^-5 molar concentration; 48 hours
UACC-257 = assay: NCI in vitro 60-cell drug screen (SRB assay); format: cell-based; conditions: UACC-257 (Melanoma); 10^-5 molar concentration; 48 hours
OVCAR-5 = assay: NCI in vitro 60-cell drug screen (SRB assay); format: cell-based; conditions: OVCAR-5 (Ovarian cancer); 10^-5 molar concentration; 48 hours
A498 = assay: NCI in vitro 60-cell drug screen (SRB assay); format: cell-based; conditions: A498 (Renal cancer); 10^-5 molar concentration; 48 hours
K-562 = assay: NCI in vitro 60-cell drug screen (SRB assay); format: cell-based; conditions: K-562 (Leukemia); 10^-5 molar concentration; 48 hours
NCI-H322M = assay: NCI in vitro 60-cell drug screen (SRB assay); format: cell-based; conditions: NCI-H322M (Non-small cell lung cancer); 10^-5 molar concentration; 48 hours
SF-539 = assay: NCI in vitro 60-cell drug screen (SRB assay); format: cell-based; conditions: SF-539 (CNS cancer); 10^-5 molar concentration; 48 hours
SNB-75 = assay: NCI in vitro 60-cell drug screen (SRB assay); format: cell-based; conditions: SNB-75 (CNS cancer); 10^-5 molar concentration; 48 hours
A549/ATCC = assay: NCI in vitro 60-cell drug screen (SRB assay); format: cell-based; conditions: A549/ATCC (Non-small cell lung cancer); 10^-5 molar concentration; 48 hours
HOP-62 = assay: NCI in vitro 60-cell drug screen (SRB assay); format: cell-based; conditions: HOP-62 (Non-small cell lung cancer); 10^-5 molar concentration; 48 hours
SR = assay: NCI in vitro 60-cell drug screen (SRB assay); format: cell-based; conditions: SR (Leukemia); 10^-5 molar concentration; 48 hours
U251 = assay: NCI in vitro 60-cell drug screen (SRB assay); format: cell-based; conditions: U251 (CNS cancer); 10^-5 molar concentration; 48 hours
UACC-62 = assay: NCI in vitro 60-cell drug screen (SRB assay); format: cell-based; conditions: UACC-62 (Melanoma); 10^-5 molar concentration; 48 hours
ACHN = assay: NCI in vitro 60-cell drug screen (SRB assay); format: cell-based; conditions: ACHN (Renal cancer); 10^-5 molar concentration; 48 hours
SN12C = assay: NCI in vitro 60-cell drug screen (SRB assay); format: cell-based; conditions: SN12C (Renal cancer); 10^-5 molar concentration; 48 hours
M14 = assay: NCI in vitro 60-cell drug screen (SRB assay); format: cell-based; conditions: M14 (Melanoma); 10^-5 molar concentration; 48 hours
MDA-MB-231/ATCC = assay: NCI in vitro 60-cell drug screen (SRB assay); format: cell-based; conditions: MDA-MB-231/ATCC (Breast cancer); 10^-5 molar concentration; 48 hours
CCRF-CEM = assay: NCI in vitro 60-cell drug screen (SRB assay); format: cell-based; conditions: CCRF-CEM (Leukemia); 10^-5 molar concentration; 48 hours
SNB-19 = assay: NCI in vitro 60-cell drug screen (SRB assay); format: cell-based; conditions: SNB-19 (CNS cancer); 10^-5 molar concentration; 48 hours

Compound	Growth percent, Mean (60 cell lines)	Growth percent (MALME-3M)	Growth percent (MOLT-4)	Growth percent (SK-MEL-2)	Growth percent (LOX IMVI)	Growth percent (NCI-H460)	Growth percent (MCF7)	Growth percent (HS 578T)	Growth percent (RXF 393)	Growth percent (HCT-15)	Growth percent (OVCAR-8)	Growth percent (NCI-H522)	Growth percent (786-0)	Growth percent (HCT-116)	Growth percent (MDA-MB-486)	Growth percent (UACC-257)	Growth percent (OVCAR-5)	Growth percent (A498)	Growth percent (K-562)	Growth percent (NCI-H322M)	other results
CN(C)c1nc2ccccc2c2c(=O)c3cc(Cl)ccc3sc12 [Compound 6, 10-Chloro-6-dimethylamino-12H-thiochromeno[2,3-c]quinolin-12-one]	80.59%	89.70%	97.52%	87.26%	86.53%	88.86%	22.19%	60.38%	83.17%	89.27%	68.53%	70.42%	87.00%	74.26%	29.91%	109.22%	98.05%	97.06%	99.71%	83.74%	Growth percent (SF-539): 72.72%; Growth percent (SNB-75): 15.29%; Growth percent (A549/ATCC): 94.16%; Growth percent (HOP-62): 43.62%; Growth percent (SR): 95.68%; Growth percent (U251): 93.55%; Growth percent (UACC-62): 87.80%; Growth percent (ACHN): 64.81%; Growth percent (SN12C): 99.49%; Growth percent (M14): 94.36%; Growth percent (MDA-MB-231/ATCC): 71.03%; Growth percent (CCRF-CEM): 99.42%; Growth percent (SNB-19): 76.46%
COc1nc2ccccc2c2c(=O)c3cc(Cl)ccc3sc12 [Compound 5, 10-Chloro-6-methoxy-12H-thiochromeno[2,3-c]quinolin-12-one]	92.10%	94.19%	80.62%	105.52%	91.21%	101.23%	65.39%	66.51%	109.68%	107.99%	91.82%	92.71%	99.15%	89.48%	103.54%	108.09%	106.70%	96.29%	95.83%	90.77%	Growth percent (SF-539): 86.13%; Growth percent (SNB-75): 52.28%; Growth percent (A549/ATCC): 100.46%; Growth percent (HOP-62): 69.64%; Growth percent (SR): 88.18%; Growth percent (U251): 99.18%; Growth percent (UACC-62): 96.15%; Growth percent (ACHN): 74.89%; Growth percent (SN12C): 98.74%; Growth percent (M14): 88.40%; Growth percent (MDA-MB-231/ATCC): 78.12%; Growth percent (CCRF-CEM): 106.56%; Growth percent (SNB-19): 89.36%
O=c1c2cc(Cl)ccc2sc2c(O)nc3ccccc3c12 [Compound 4, 10-Chloro-6-hydroxy-12H-thiochromeno[2,3-c]quinolin-12-one]	97.17%	93.26%	100.41%	103.04%	92.07%	96.92%	69.90%	113.28%	116.94%	98.11%	100.55%	86.60%	99.76%	86.20%	100.33%	108.36%	111.17%	107.74%	107.08%	90.87%	Growth percent (SF-539): 93.21%; Growth percent (SNB-75): 66.63%; Growth percent (A549/ATCC): 95.25%; Growth percent (HOP-62): 90.80%; Growth percent (SR): 96.00%; Growth percent (U251): 101.85%; Growth percent (UACC-62): 105.86%; Growth percent (ACHN): 95.52%; Growth percent (SN12C): 101.14%; Growth percent (M14): 94.76%; Growth percent (MDA-MB-231/ATCC): 81.80%; Growth percent (CCRF-CEM): 107.78%; Growth percent (SNB-19): 101.37%
